Laboratory results taken from US3997549A, “N-arylsulfenylated derivatives of benzofuranyl methylcarbamates” (priority 1973, dated 1976).
≈ marks a conversion by molar mass, not a printed value.

tested on: Mexican bean beetle; test: Initial contact activity, Mexican bean beetle; conditions: Epilachna varivestis, 48 h, read-out: % Kill, BB (initial contact)

| Compound | mortality at 1250 ppm [%] |
| --- | --- |
| CN(Sc1ccc(C(C)(C)C)cc1)C(=O)Oc1cccc2c1OC(C)(C)C2 [Example III, 2,3-Dihydro-2,2-dimethyl-7-benzofuranyl (4-tert-butylphenylthio)(methyl)carbamate] | 100 |

tested on: southern army worm; test: Initial contact activity, southern army worm; conditions: 1250 ppm, 48 h exposure

| Compound | % Kill, AW (initial contact) [%] |
| --- | --- |
| CN(Sc1ccc(C(C)(C)C)cc1)C(=O)Oc1cccc2c1OC(C)(C)C2 [Example III, 2,3-Dihydro-2,2-dimethyl-7-benzofuranyl (4-tert-butylphenylthio)(methyl)carbamate] | 100 |

tested on: milkweed bug; test: Residual contact activity, milkweed bug; conditions: Oncopeltus fasciatus, 48 h, read-out: % Kill, MWB (residual contact)

| Compound | mortality at 1250 ppm [%] |
| --- | --- |
| CN(Sc1ccc(C(C)(C)C)cc1)C(=O)Oc1cccc2c1OC(C)(C)C2 [Example III, 2,3-Dihydro-2,2-dimethyl-7-benzofuranyl (4-tert-butylphenylthio)(methyl)carbamate] | 100 |

tested on: Mexican bean beetle; test: Residual contact activity, Mexican bean beetle; conditions: Epilachna varivestis, 48 h, read-out: % Kill, BB (residual contact)

| Compound | mortality at 1250 ppm [%] |
| --- | --- |
| CN(Sc1ccc(C(C)(C)C)cc1)C(=O)Oc1cccc2c1OC(C)(C)C2 [Example III, 2,3-Dihydro-2,2-dimethyl-7-benzofuranyl (4-tert-butylphenylthio)(methyl)carbamate] | 100 |

tested on: confused flour beetle; test: Initial contact activity, confused flour beetle; assay type: in vivo; conditions: Tribolium confusum; 1250 ppm, 48 h exposure; read-out: % Kill, FB (initial contact)
Procedure: (§1) Initial Contact Activity: One-half gram of test compound was dissolved in 40 ml of acetone and this solution was dispersed in 360 ml of water containing one drop of isooctyl phenyl polyethoxyethanol. An aliquot of this solution was diluted with water to provide a solution containing 1250 ppm of active ingredient. Test organisms and techniques were as follows: The activities against the Mexican bean beetle (Epilachna varivestis Muls.) and the southern army worm (Prodenia eridania [Cram.]) were evaluated by dipping the leaves of pinto bean plants into the test solution and infesting the leaves with the appropriate immature form insects when the foliage had dried; the activity against the pea aphid (Macrosiphum pisi [Harris]) was evaluated on broad bean plants whose leaves were dipped before infestation with adult aphids; the activity against the two-spotted spider mite (Tetranychus urticae [L.]) was evaluated on pinto bean plants whose leaves were dipped after infestation with adult mites; the activities against the milkweed bug (Oncopeltus fascinatus [Dallas]) and the plum curculio (Conotrachelus nenuphar [Herbst]) were evaluated by spraying the test solutions into glass dishes containing the adult insects; the activities against the granary weevil (Sitophilus granarius [L.]) and the confused flour beetle (Tribolium confusum [duVal]) were evaluated by introducing the insects into glass dishes which had been previously sprayed with test solution and allowed to dry. All organisms in the test were maintained in a holding room at 80° F. and 50% relative humidity for an exposure period of forty-eight hours. At this time the number of dead and living insects were counted and the percent kill was calculated.

| Compound | mortality at 1250 ppm [%] |
| --- | --- |
| CN(Sc1ccc(C(C)(C)C)cc1)C(=O)Oc1cccc2c1OC(C)(C)C2 [Example III, 2,3-Dihydro-2,2-dimethyl-7-benzofuranyl (4-tert-butylphenylthio)(methyl)carbamate] | 100 |

tested on: plum curculio; test: Residual contact activity, plum curculio; conditions: Conotrachelus nenuphar, 48 h, read-out: % Kill, PC (residual contact)

| Compound | mortality at 1250 ppm [%] |
| --- | --- |
| CN(Sc1ccc(C(C)(C)C)cc1)C(=O)Oc1cccc2c1OC(C)(C)C2 [Example III, 2,3-Dihydro-2,2-dimethyl-7-benzofuranyl (4-tert-butylphenylthio)(methyl)carbamate] | 95 |

tested on: milkweed bug; test: Initial contact activity, milkweed bug; conditions: Oncopeltus fasciatus, 48 h, read-out: % Kill, MWB (initial contact)

| Compound | mortality at 1250 ppm [%] |
| --- | --- |
| CN(Sc1ccc(C(C)(C)C)cc1)C(=O)Oc1cccc2c1OC(C)(C)C2 [Example III, 2,3-Dihydro-2,2-dimethyl-7-benzofuranyl (4-tert-butylphenylthio)(methyl)carbamate] | 100 |

tested on: two-spotted spider mite; test: Initial contact activity, two-spotted spider mite; conditions: Tetranychus urticae, 48 h, read-out: % Kill, SM (initial contact)

| Compound | mortality at 1250 ppm [%] |
| --- | --- |
| CN(Sc1ccc(C(C)(C)C)cc1)C(=O)Oc1cccc2c1OC(C)(C)C2 [Example III, 2,3-Dihydro-2,2-dimethyl-7-benzofuranyl (4-tert-butylphenylthio)(methyl)carbamate] | 27 |

tested on: pea aphid; test: whole plant or invertebrate; conditions: Acyrthosiphon pisum, 48 h, read-out: % Kill, PA (systemic)

| Compound | mortality at 39 ppm [%] | mortality at 156 ppm [%] |
| --- | --- | --- |
| CN(Sc1ccc(C(C)(C)C)cc1)C(=O)Oc1cccc2c1OC(C)(C)C2 [Example III, 2,3-Dihydro-2,2-dimethyl-7-benzofuranyl (4-tert-butylphenylthio)(methyl)carbamate] | 5 | 43 |

tested on: granary weevil; test: Residual contact activity, granary weevil; conditions: Sitophilus granarius, 48 h, read-out: % Kill, GW (residual contact)

| Compound | mortality at 1250 ppm [%] |
| --- | --- |
| CN(Sc1ccc(C(C)(C)C)cc1)C(=O)Oc1cccc2c1OC(C)(C)C2 [Example III, 2,3-Dihydro-2,2-dimethyl-7-benzofuranyl (4-tert-butylphenylthio)(methyl)carbamate] | 100 |

tested on: confused flour beetle; test: Residual contact activity, confused flour beetle; assay type: in vivo; conditions: Tribolium confusum, 48 h; 1250 ppm; 7 days; read-out: % Kill, FB (residual contact)
Procedure: as §1
The residual contact activity of the compounds was determined on the same organisms using the technique described above, except that in each case the treated surface was allowed to dry and was exposed to normal light and air for seven days before introduction of the mites or insects. The compounds show a high order of residual activity toward the test insects.

| Compound | mortality at 1250 ppm [%] |
| --- | --- |
| CN(Sc1ccc(C(C)(C)C)cc1)C(=O)Oc1cccc2c1OC(C)(C)C2 [Example III, 2,3-Dihydro-2,2-dimethyl-7-benzofuranyl (4-tert-butylphenylthio)(methyl)carbamate] | 100 |

tested on: two-spotted spider mite; test: whole plant or invertebrate; conditions: Tetranychus urticae, 48 h, read-out: % Kill, SM (systemic)

| Compound | mortality at 39 ppm [%] | mortality at 156 ppm [%] |
| --- | --- | --- |
| CN(Sc1ccc(C(C)(C)C)cc1)C(=O)Oc1cccc2c1OC(C)(C)C2 [Example III, 2,3-Dihydro-2,2-dimethyl-7-benzofuranyl (4-tert-butylphenylthio)(methyl)carbamate] | 1 | 4 |

tested on: not listed separately; test: in vivo; conditions: mouse, po
Procedure: Acute oral toxicity of the compounds of the present invention to mice was determined after the manner of Hollingworth, Fukuto, and Metcalf in J. Agr. […] A dose of 0.25 ml of each solution was administered to each of four female white Swiss mice using the "bolus" - tipped syringe. […] Final mortality determinations were made forty-eight hours after treatment.

| Compound | LD50 at 48 h [mg/kg] |
| --- | --- |
| CN(Sc1ccc(C(C)(C)C)cc1)C(=O)Oc1cccc2c1OC(C)(C)C2 [Example III, 2,3-Dihydro-2,2-dimethyl-7-benzofuranyl (4-tert-butylphenylthio)(methyl)carbamate] | 75 |

tested on: southern army worm; test: Residual contact activity, southern army worm; conditions: 1250 ppm; 7 days; 2880 min

| Compound | % Kill, AW (residual contact) [%] |
| --- | --- |
| CN(Sc1ccc(C(C)(C)C)cc1)C(=O)Oc1cccc2c1OC(C)(C)C2 [Example III, 2,3-Dihydro-2,2-dimethyl-7-benzofuranyl (4-tert-butylphenylthio)(methyl)carbamate] | 31 |

tested on: Culex fatigans; test: whole plant or invertebrate; conditions: Culex quinquefasciatus, 24 h, read-out: Mosquitoes LC50
Procedure: The appropriate amount of stock solution was added with stirring to 100 ml of tap water and 20-25 fourth instar larvae of Culex fatigans were placed in the solution. After twenty-four hours, the counts were taken. Larvae not able to rise to the surface on touch were counted as dead. Each concentration was run in duplicate and each material was run on two or three different days. The average percent mortality was plotted against the logarithm of the concentration (in ppm) and the LC50 value determined by inspection.

| Compound | LC50 [ng/mL] |
| --- | --- |
| CN(Sc1ccc(C(C)(C)C)cc1)C(=O)Oc1cccc2c1OC(C)(C)C2 [Example III, 2,3-Dihydro-2,2-dimethyl-7-benzofuranyl (4-tert-butylphenylthio)(methyl)carbamate] | 2.5 (≈ 6.48 nM) |

tested on: two-spotted spider mite; test: Residual contact activity, two-spotted spider mite; conditions: Tetranychus urticae, 48 h, read-out: % Kill, SM (residual contact)

| Compound | mortality at 1250 ppm [%] |
| --- | --- |
| CN(Sc1ccc(C(C)(C)C)cc1)C(=O)Oc1cccc2c1OC(C)(C)C2 [Example III, 2,3-Dihydro-2,2-dimethyl-7-benzofuranyl (4-tert-butylphenylthio)(methyl)carbamate] | 2 |

tested on: houseflies; test: whole plant or invertebrate; conditions: Musca domestica, topical, 24 h, read-out: Houseflies LD50
Procedure: Toxicity of the compounds of the present invention to houseflies was tested using the technique described by March and Metcalf in Bull. Calif. State Dept. Agr. […] Adult female houseflies were treated with one drop of acetone solution, applied to the prothorax, using a syringe calibrated to deliver 1.00 ± 0.05 mm^3 drops. Twenty flies were treated at each dosage, each test compound was applied at 8 to 10 dosage levels. Each test was replicated three times. […] A one-inch square of cotton saturated with 40% sugar solution was provided for food in each carton. The cartons of flies were held in a constant temperature chamber at 60° F and 60% relative humidity for 24 hours before mortality counts were made. Flies totally unable to make crawling or walking movements were counted as dead. LD50 values were calculated in the conventional manner.

| Compound | LD50 [mg/kg] |
| --- | --- |
| CN(Sc1ccc(C(C)(C)C)cc1)C(=O)Oc1cccc2c1OC(C)(C)C2 [Example III, 2,3-Dihydro-2,2-dimethyl-7-benzofuranyl (4-tert-butylphenylthio)(methyl)carbamate] | 2.7 |

tested on: Mexican bean beetle; test: whole plant or invertebrate; conditions: Epilachna varivestis, 48 h, read-out: % Kill, BB (systemic)

| Compound | mortality at 39 ppm [%] | mortality at 156 ppm [%] |
| --- | --- | --- |
| CN(Sc1ccc(C(C)(C)C)cc1)C(=O)Oc1cccc2c1OC(C)(C)C2 [Example III, 2,3-Dihydro-2,2-dimethyl-7-benzofuranyl (4-tert-butylphenylthio)(methyl)carbamate] | 56 | 100 |

tested on: plum curculio; test: Initial contact activity, plum curculio; conditions: Conotrachelus nenuphar, 48 h, read-out: % Kill, PC (initial contact)

| Compound | mortality at 1250 ppm [%] |
| --- | --- |
| CN(Sc1ccc(C(C)(C)C)cc1)C(=O)Oc1cccc2c1OC(C)(C)C2 [Example III, 2,3-Dihydro-2,2-dimethyl-7-benzofuranyl (4-tert-butylphenylthio)(methyl)carbamate] | 100 |

tested on: granary weevil; test: Initial contact activity, granary weevil; conditions: Sitophilus granarius, 48 h, read-out: % Kill, GW (initial contact)

| Compound | mortality at 1250 ppm [%] |
| --- | --- |
| CN(Sc1ccc(C(C)(C)C)cc1)C(=O)Oc1cccc2c1OC(C)(C)C2 [Example III, 2,3-Dihydro-2,2-dimethyl-7-benzofuranyl (4-tert-butylphenylthio)(methyl)carbamate] | 100 |

tested on: southern army worm; test: not given; conditions: 39 ppm soil watering; separate test vs carbofuran; 2880 min

| Compound | % Kill, AW (systemic) [%] |
| --- | --- |
| CN(Sc1ccc(C(C)(C)C)cc1)C(=O)Oc1cccc2c1OC(C)(C)C2 [Example III, 2,3-Dihydro-2,2-dimethyl-7-benzofuranyl (4-tert-butylphenylthio)(methyl)carbamate] | 0 |

same assay, conditions: 156 ppm soil watering; 2880 min

| Compound | % Kill, AW (systemic) [%] |
| --- | --- |
| CN(Sc1ccc(C(C)(C)C)cc1)C(=O)Oc1cccc2c1OC(C)(C)C2 [Example III, 2,3-Dihydro-2,2-dimethyl-7-benzofuranyl (4-tert-butylphenylthio)(methyl)carbamate] | 0 |
